Reference: ChEMBL document CHEMBL3616368, “Induction of apoptosis by genipin inhibits cell proliferation in AGS human gastric cancer cells via Egr1/p21 signaling pathway” (Bioorg Med Chem Lett, 2015)
Active and inactive are the calls of the source. The calls are words filed in the database; no cut-off is given here.

What was measured:
AGS [1] = test: Cytotoxicity against human AGS cells assessed as reduction in cell viability after 6 hrs by MTT assay; type: functional, cell-based
HEK293 [2] = test: Cytotoxicity against HEK293 cells assessed as reduction in cell viability at 12.5 to 100 uM after 6 hrs by MTT assay; type: cell-based; settings: human, hek293, 6 h
[3] = biological target: Early growth response protein 1 (Homo sapiens) (UniProt P18146); test: Activation of Egr1 in human AGS cells assessed as increase in cleaved caspase-3 level at 100 uM by Western blot analysis in presence of caspase-3 inhibitor Ac-DEVD-CHO; type: cell-based
Early growth response protein 1 (Homo sapiens), sequence (P18146 whole entry, looked up): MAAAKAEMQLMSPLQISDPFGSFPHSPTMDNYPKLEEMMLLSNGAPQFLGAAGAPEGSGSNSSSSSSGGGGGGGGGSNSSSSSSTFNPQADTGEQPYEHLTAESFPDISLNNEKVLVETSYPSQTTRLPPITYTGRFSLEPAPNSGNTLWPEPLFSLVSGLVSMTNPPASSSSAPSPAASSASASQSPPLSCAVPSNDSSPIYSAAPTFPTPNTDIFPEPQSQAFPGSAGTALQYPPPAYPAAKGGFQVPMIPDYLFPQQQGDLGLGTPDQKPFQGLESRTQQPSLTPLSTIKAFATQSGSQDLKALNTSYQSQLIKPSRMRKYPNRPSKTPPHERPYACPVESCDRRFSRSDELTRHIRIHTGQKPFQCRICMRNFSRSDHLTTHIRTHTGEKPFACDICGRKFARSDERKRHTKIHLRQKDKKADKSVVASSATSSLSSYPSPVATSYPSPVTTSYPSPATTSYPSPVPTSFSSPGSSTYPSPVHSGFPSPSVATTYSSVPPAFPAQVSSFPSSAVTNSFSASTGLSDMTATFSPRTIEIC

[4] = biological target: Early growth response protein 1 (Homo sapiens) (UniProt P18146); test: Activation of Egr1 in human AGS cells assessed as increase in cleaved caspase-3 level at 100 uM by Western blot analysis; type: cell-based
AGS [5] = test: Cytotoxicity against human AGS cells assessed as cell viability at 100 uM after 6 hrs by MTT assay in presence of caspase-3 inhibitor Ac-DEVD-CHO; type: functional, cell-based
AGS [6] = test: Cytotoxicity against human AGS cells assessed as cell viability at 100 uM after 6 hrs by MTT assay; type: functional, cell-based
[7] = biological target: Early growth response protein 1 (Homo sapiens) (UniProt P18146); test: Activation of Egr1 in human AGS cells assessed as increase in cleaved PARP level at 100 uM by Western blot analysis; type: cell-based
[8] = biological target: Early growth response protein 1 (Homo sapiens) (UniProt P18146); test: Activation of Egr1 in human AGS cells assessed as increase in cleaved caspase-9 level at 100 uM by Western blot analysis; type: cell-based
[9] = biological target: Early growth response protein 1 (Homo sapiens) (UniProt P18146); test: Activation of Egr1 in human AGS cells assessed as increase in cleaved caspase-7 level at 100 uM by Western blot analysis; type: cell-based
HEK293 [10] = test: Induction of apoptosis in HEK293 cells assessed as increase in cleaved PARP level at 100 uM by Western blot analysis; type: cell-based; settings: human, hek293, 100 µM
HEK293 [11] = test: Induction of apoptosis in HEK293 cells assessed as increase in cleaved caspase-9 level at 100 uM by Western blot analysis; type: cell-based; settings: human, hek293, 100 µM
HEK293 [12] = test: Induction of apoptosis in HEK293 cells assessed as increase in cleaved caspase-7 level at 100 uM by Western blot analysis; type: cell-based; settings: human, hek293, 100 µM
HEK293 [13] = test: Induction of apoptosis in HEK293 cells assessed as increase in cleaved caspase-3 level at 100 uM by Western blot analysis; type: cell-based; settings: human, hek293, 100 µM
[14] = biological target: Early growth response protein 1 (Homo sapiens) (UniProt P18146); test: Activation of Egr1 in human AGS cells assessed as increase in intracellular accumulation of reactive oxygen species at 100 uM by H2DCFDA probe-based flow cytometric analysis relative to control; type: cell-based
[15] = biological target: Early growth response protein 1 (Homo sapiens) (UniProt P18146); test: Activation of Egr1 in human AGS cells assessed as increase in loss of mitochondrial membrane potential after 6 hrs by Rh-123 staining-based flow cytometric analysis relative to control; type: cell-based
AGS [16] = test: Cell cycle arrest in human AGS cells assessed as accumulation at G0/G1 phase at 12.5 uM after 6 hrs by propidium iodide staining-based flow cytometric analysis (reference value: 52.82 +/- 2.87%); type: functional
AGS [17] = test: Cell cycle arrest in human AGS cells assessed as accumulation at G0/G1 phase at 25 uM after 6 hrs by propidium iodide staining-based flow cytometric analysis (reference value: 52.82 +/- 2.87%); type: functional
AGS [18] = test: Cell cycle arrest in human AGS cells assessed as accumulation at G0/G1 phase at 50 uM after 6 hrs by propidium iodide staining-based flow cytometric analysis (reference value: 52.82 +/- 2.87%); type: functional
AGS [19] = test: Cell cycle arrest in human AGS cells assessed as accumulation at G0/G1 phase at 100 uM after 6 hrs by propidium iodide staining-based flow cytometric analysis (reference value: 52.82 +/- 2.87%); type: functional
AGS [20] = test: Cell cycle arrest in human AGS cells assessed as accumulation at S phase at 12.5 uM after 6 hrs by propidium iodide staining-based flow cytometric analysis (reference value: 21.40 +/- 2.87%); type: functional
AGS [21] = test: Cell cycle arrest in human AGS cells assessed as accumulation at S phase at 25 uM after 6 hrs by propidium iodide staining-based flow cytometric analysis (reference value: 21.40 +/- 2.87%); type: functional
AGS [22] = test: Cell cycle arrest in human AGS cells assessed as accumulation at S phase at 50 uM after 6 hrs by propidium iodide staining-based flow cytometric analysis (reference value: 21.40 +/- 2.87%); type: functional
AGS [23] = test: Cell cycle arrest in human AGS cells assessed as accumulation at S phase at 100 uM after 6 hrs by propidium iodide staining-based flow cytometric analysis (reference value: 21.40 +/- 2.87%); type: functional
AGS [24] = test: Cell cycle arrest in human AGS cells assessed as accumulation at G2/M phase at 12.5 uM after 6 hrs by propidium iodide staining-based flow cytometric analysis (reference value: 23.05 +/- 3.15%); type: functional
AGS [25] = test: Cell cycle arrest in human AGS cells assessed as accumulation at G2/M phase at 25 uM after 6 hrs by propidium iodide staining-based flow cytometric analysis (reference value: 23.05 +/- 3.15%); type: functional
AGS [26] = test: Cell cycle arrest in human AGS cells assessed as accumulation at G2/M phase at 50 uM after 6 hrs by propidium iodide staining-based flow cytometric analysis (reference value: 23.05 +/- 3.15%); type: functional
AGS [27] = test: Cell cycle arrest in human AGS cells assessed as accumulation at G2/M phase at 100 uM after 6 hrs by propidium iodide staining-based flow cytometric analysis (reference value: 23.05 +/- 3.15%); type: functional
AGS [28] = test: Cell cycle arrest in human AGS cells assessed as accumulation at G2/M phase after 6 hrs by propidium iodide staining-based flow cytometric analysis; type: functional
[29] = biological target: Early growth response protein 1 (Homo sapiens) (UniProt P18146); test: Activation of Egr1 in human AGS cells assessed as downregulation of cyclin A expression at 12.5 to 100 uM by Western blot analysis; type: cell-based
[30] = biological target: Early growth response protein 1 (Homo sapiens) (UniProt P18146); test: Activation of Egr1 in human AGS cells assessed as downregulation of cyclin E expression at 12.5 to 100 uM by Western blot analysis; type: cell-based
[31] = biological target: Early growth response protein 1 (Homo sapiens) (UniProt P18146); test: Activation of Egr1 in human AGS cells assessed as upregulation of protein expression by Western blot analysis; type: cell-based
[32] = biological target: Early growth response protein 1 (Homo sapiens) (UniProt P18146); test: Activation of Egr1 in human AGS cells assessed as upregulation of p21 expression by Western blot analysis; type: cell-based
AGS [33] = test: Upregulation of Egr1 mRNA expression in human AGS cells by RT-qPCR analysis; type: functional, cell-based
[34] = biological target: Early growth response protein 1 (Homo sapiens) (UniProt P18146); test: Activation of Egr1 in human AGS cells assessed as upregulation of p21 mRNA expression by RT-qPCR analysis; type: cell-based
[35] = biological target: Early growth response protein 1 (Homo sapiens) (UniProt P18146); test: Activation of Egr1 in human AGS cells assessed as upregulation of protein expression after 6 hrs by DAPI staining-based fluorescence microscopic analysis; type: cell-based
[36] = biological target: Early growth response protein 1 (Homo sapiens) (UniProt P18146); test: Activation of Egr1 in human AGS cells assessed as induction of p21 promoter activity by dual luciferase reporter gene assay; type: cell-based
[37] = biological target: Early growth response protein 1 (Homo sapiens) (UniProt P18146); test: Activation of Egr1 in human AGS cells assessed as induction of p21 promoter activity by ChIP assay; type: cell-based
[38] = biological target: Early growth response protein 1 (Homo sapiens) (UniProt P18146); test: Activation of Egr1 in human AGS cells assessed as increase in interaction with p21 promoter by dual luciferase reporter gene assay; type: cell-based
[39] = biological target: Early growth response protein 1 (Homo sapiens) (UniProt P18146); test: Activation of Egr1 in human AGS cells assessed as increase in interaction with p21 promoter by ChIP assay; type: cell-based
AGS [40] = test: Upregulation of Egr1 mRNA expression in human AGS cells at 50 to 100 uM by RT-qPCR analysis in presence of si-Egr1 relative to control; type: functional, cell-based
[41] = biological target: Early growth response protein 1 (Homo sapiens) (UniProt P18146); test: Activation of Egr1 in human AGS cells assessed as upregulation of p21 mRNA expression at 50 to 100 uM by RT-qPCR analysis in presence of si-Egr1 relative to control; type: cell-based
[42] = biological target: Early growth response protein 1 (Homo sapiens) (UniProt P18146); test: Activation of Egr1 in human AGS cells assessed as upregulation of protein expression at 50 to 100 uM by Western blot analysis in presence of si-Egr1; type: cell-based
[43] = biological target: Early growth response protein 1 (Homo sapiens) (UniProt P18146); test: Activation of Egr1 in human AGS cells assessed as upregulation of p21 expression at 50 to 100 uM by Western blot analysis in presence of si-Egr1; type: cell-based
[44] = biological target: Early growth response protein 1 (Homo sapiens) (UniProt P18146); test: Activation of Egr1 in human AGS cells assessed as induction of p21 promoter activity at 12.5 to 100 uM by dual luciferase reporter gene assay in presence of si-Egr1; type: cell-based
[45] = biological target: Early growth response protein 1 (Homo sapiens) (UniProt P18146); test: Activation of Egr1 in human AGS cells assessed as increase in cleaved caspase-3 level at 50 to 100 uM by Western blot analysis in presence of si-Egr1; type: cell-based
AGS [46] = test: Cytotoxicity against human AGS cells assessed as cell viability at 100 uM after 6 hrs by MTT assay in presence of si-Egr1; type: functional, cell-based
[47] = biological target: Early growth response protein 1 (Homo sapiens) (UniProt P18146); test: Activation of Egr1 in human AGS cells transfected with p21-pcDNA3 assessed as increase in cleaved PARP level at 50 to 100 uM by Western blot analysis; type: cell-based
AGS [48] = test: Cytotoxicity against human AGS cells transfected with p21-pcDNA3 assessed as cell viability at 12.5 to 100 uM after 6 hrs by MTT assay relative to control; type: functional, cell-based
[49] = biological target: Early growth response protein 1 (Homo sapiens) (UniProt P18146); test: Activation of Egr1 in human AGS cells transfected with p21-pcDNA3 assessed as increase in intracellular accumulation of reactive oxygen species at 100 uM by H2DCFDA probe-based flow cytometric analysis relative to control; type: cell-based

COC(=O)C1=CO[C@@H](O)[C@@H]2C(CO)=CC[C@H]12 [GENIPIN]
Activity (AGS [1]): Dose-dependent effect | Activity (HEK293 [2]): Non-toxic | Activity [3]: inactive | Activity [4]: Active | Activity (AGS [5]): inactive | Activity (AGS [6]): Active | Activity [7]: Active | Activity [8]: Active | Activity [9]: Active | Activity (HEK293 [10]): Non-toxic | Activity (HEK293 [11]): Non-toxic | Activity (HEK293 [12]): Non-toxic | Activity (HEK293 [13]): Non-toxic | Activity [14]: Active | Activity [15]: Dose-dependent effect | Activity (AGS [16]): 48.45% | Activity (AGS [17]): 42.33% | Activity (AGS [18]): 35.97% | Activity (AGS [19]): 36.88% | Activity (AGS [20]): 22.67% | Activity (AGS [21]): 24.66% | Activity (AGS [22]): 28.54% | Activity (AGS [23]): 27.48% | Activity (AGS [24]): 26.34% | Activity (AGS [25]): 30.53% | Activity (AGS [26]): 33.53% | Activity (AGS [27]): 33% | Activity (AGS [28]): Dose-dependent effect | Activity [29]: Active | Activity [30]: Active | Activity [31]: Dose-dependent effect | Activity [32]: Dose-dependent effect | Activity (AGS [33]): Dose-dependent effect | Activity [34]: Dose-dependent effect | Activity [35]: Dose-dependent effect | Activity [36]: Dose-dependent effect | Activity [37]: Dose-dependent effect | Activity [38]: Dose-dependent effect | Activity [39]: Dose-dependent effect | Activity (AGS [40]): inactive | Activity [41]: inactive | Activity [42]: inactive | Activity [43]: inactive | Activity [44]: inactive | Activity [45]: inactive | Activity (AGS [46]): inactive | Activity [47]: Active | Activity (AGS [48]): Active | Activity [49]: Active
